Measurements published in patent US20190351003A1, “METHODS FOR INHIBITING NONALCOHOLIC STEATOHEPATITIS, NONALCOHOLIC FATTY LIVER DISEASE, AND/OR DE NOVO LIPOGENESIS” (The Regents of the University of California, priority 2017, published 2019).

Key:
[1] = test system: human caspases (including caspase-2); settings: cited from earlier work
MUP-uPA mice = settings: HFD-fed MUP-uPA mice; cited from earlier work
HFD-fed MUP-uPA mice = assay: Casp2 inhibitor treatment of HFD-fed MUP-uPA mice (NASH model); format: in vivo, mouse; settings: for circulating TG / circulating cholesterol: serum
Procedure: FIGS. 6A-6G are pictorial and graphical diagrams showing that Casp2 inhibition ameliorates NASH. […] After 6 weeks of HFD feeding, MUP-uPA mice were treated with Ac-VDVAD (10 μg/g) for 6 weeks while kept on HFD. […] FFPE sections from livers of inhibitor or vehicle treated mice were evaluated for macrovesicular fat, ballooning hepatocytes, MDB and p62 aggregates, macrophages, collagen fibers and lipid droplets. Magnification bars: 100 μm. Images were quantitated as above and results are shown on the right as averages±SEM (Vehicle: n=6; Ac-VDVAD: n=5). […] Mean±SEM. […] Adipocyte size and density were determined as above. ATM (adipose tissue macrophages) were visualized by F4/80 staining and quantified as above.
Casp2^−/− mice were purchased from The Jackson Laboratories and crossed with either C57BL/6 or MUP-uPA mice (Sandgren et al., 1991; Weglarz et al., 2000) to generate Casp2^−/−/WT or Casp2^−/−/MUP-uPA mice, respectively. All mouse lines were either on a pure C57BL/6 genetic background or crossed into it for at least nine generations. Mice were fed with HFD (#S3282, Bio-serv) for a total of 12 weeks, starting at 8 weeks of age. Body weight increase and food consumption were monitored bi-weekly throughout the entire feeding period. Mice were starved for 3 hr before sacrifice and liver and adipose tissue were excised and weighed.
RNAs were extracted from liver or fat tissue of indicated mice or human biopsies using TRIZOL reagent according to manufacturer's instruction. cDNAs were synthesized from total RNAs using Super Script VILO cDNA Synthesis Kit (Thermo Fisher Scientific, MA) according to the supplier's instructions. The cDNAs were quantified by real-time PCR analysis using SYBR Green Master Mix (Bio-Rad, CA). Primer sequences that were used for human biopsies are as follows:
Liver and epidydimal fat were fixed in 4% paraformaldehyde for 48 hr and embedded in paraffin, sectioned, stained with hematoxylin and eosin (H&E) to evaluate gross morphology and ballooning degeneration and with Sirius Red to determine fibrosis. Prepared FFPE sections were subjected to incubation with antibodies specific to p62 and F4/80 to visualize formation of Mallory-Denk Bodies (MDB) and macrophage infiltration, respectively. For frozen-block preparation, liver tissue was embedded in Tissue-Tek OCT compound (Sakura Finetek), sectioned, and stained with Oil Red O to visualize TG accumulation. Stained areas were quantified using ImageJ software.
Liver lipids were extracted using chloroform/methanol (2:1 v/v) and plasma and liver TG and cholesterol were determined using Triglyceride Colorimetric Assay Kit (Cayman Chemical Company, MI) and Cholesterol Quantification Kit (Sigma-Aldrich, MO) according to manufacturer's instructions.
Morphological analysis of adipocytes was performed by using MRI adipocyte tools (Osman et al., 2013). Images were taken from FFPE epidydimal fat section by AXIO Imager A2 (Carl Zeiss, Germany) and subjected to MRI adipocyte software to obtain area of individual fat cell and number of adipocytes per HMF. Quantification and statistical significance were analyzed by Prism 7 software (GraphPad Prism, CA).
To examine whether Casp2 inhibition is of therapeutic value, Ac-VDVAD-CHO (C23H37N5O10), a cell permeable, Casp2 inhibitor (Talanian et al., 1997) was administrated to HFD-fed MUP-uPA mice. HFD feeding was initiated at eight weeks of age, and six weeks later the mice were given the Casp2 inhibitor on alternate days by intraperitoneal (i.p.) injection (FIG. 6A). After a 6-week treatment regimen, the mice were sacrificed and their liver and adipose tissue were examined. […] Fibrosis was also attenuated. qRT-PCR analysis confirmed that expression of inflammatory cytokines and markers as well as fibrosis-related genes was reduced in response to Casp2 inhibition (FIG. 6C). […]

[2] = HFD-fed MUP-uPA mice, 10 μg/g i.p. every other day for 6 weeks
[3] = HFD-fed MUP-uPA mice, 10 μg/g i.p. every other day for 6 weeks, liver
[4] = HFD-fed MUP-uPA mice, 10 μg/g i.p. on alternate days for 6 weeks
[5] = HFD-fed MUP-uPA mice, 10 μg/g i.p. on alternate days for 6 weeks, liver sections
[6] = liver WCL, IB, HFD-fed MUP-uPA mice, 10 μg/g i.p. on alternate days for 6 weeks

| Compound | NASH development (MUP-uPA mice) | activation of sterol response element binding proteins (SREBP) (MUP-uPA mice) | lipid accumulation (MUP-uPA mice) | ATM (adipose tissue macrophage) accumulation / infiltration into epidydimal fat (HFD-fed MUP-uPA mice; [2]) | UCP1 expression in BAT (HFD-fed MUP-uPA mice; [2]) | liver TG (HFD-fed MUP-uPA mice; [2]) | liver fibrosis (HFD-fed MUP-uPA mice; [2]) | MDB (Mallory-Denk body) formation (HFD-fed MUP-uPA mice; [3]) | circulating TG (HFD-fed MUP-uPA mice; [2]) | circulating cholesterol (HFD-fed MUP-uPA mice; [2]) | further results |
| --- | --- | --- | --- | --- | --- | --- | --- | --- | --- | --- | --- |
| C[C@H](NC(=O)C(=O)Nc1ccccc1C(C)(C)C)C(=O)N[C@@H](CC(=O)O)C(=O)COc1c(F)c(F)cc(F)c1F [IDN-6556] | – | – | – | – | – | – | – | – | – | – | activity against human caspases ([1]; broad-spectrum (pan-caspase) inhibitor): activity against all tested human caspases; inhibition of other classes of proteases or other enzymes or receptors other than caspases ([1]; selectivity): no inhibition |
| O=C(O)CCCc1ccccc1 [PBA, phenyl butyric acid] | effectively inhibited | attenuate | inhibit | – | – | – | – | – | – | – | – |
| C[C@H](CCC(=O)NCCS(=O)(=O)O)[C@H]1CC[C@H]2[C@@H]3[C@@H](O)C[C@@H]4C[C@H](O)CC[C@]4(C)[C@H]3CC[C@]12C [TUDCA, tauroursodeoxycholic acid] | effectively inhibited | attenuate | inhibit | – | – | – | – | – | – | – | – |
| Ac-VDVAD-aldehyde | – | – | – | blocked | enhanced | decreased | attenuated | prevented | decreased | decreased | blood insulin (HFD-fed MUP-uPA mice; [4]): had no effect; body weight (HFD-fed MUP-uPA mice; [4]): had no effect; hepatic steatosis (HFD-fed MUP-uPA mice; HFD-fed MUP-uPA mice, 10 μg/g i.p. on alternate days for 6 weeks after 6 weeks of HFD, liver sections): prevented; macrophage recruitment (HFD-fed MUP-uPA mice; HFD-fed MUP-uPA mice, 10 μg/g i.p. on alternate days for 6 weeks, liver): decreasing; ballooning degeneration (HFD-fed MUP-uPA mice; [5]): prevented; p62 accumulation (HFD-fed MUP-uPA mice; [5]): prevented; SREBP1/2 activation in liver (HFD-fed MUP-uPA mice; IB of liver WCL and NE, HFD-fed MUP-uPA mice, 10 μg/g i.p. on alternate days for 6 weeks): attenuated; energy expenditure, as suggested by AMPK activation in peripheral tissues, including liver and skeletal muscle (HFD-fed MUP-uPA mice; IB of liver and muscle extracts, HFD-fed MUP-uPA mice, 10 μg/g i.p. on alternate days for 6 weeks): increased; established NASH (HFD-fed MUP-uPA mice; MUP-uPA mice, 10 μg/g for 6 weeks after 6 weeks of HFD feeding, kept on HFD): ameliorates; adipocyte enlargement (HFD-fed MUP-uPA mice; epidydimal fat, HFD-fed MUP-uPA mice, 10 μg/g i.p. on alternate days for 6 weeks): blocked; INSIG1 or 2 expression (HFD-fed MUP-uPA mice; [6]): had no effect; IRS2 expression (HFD-fed MUP-uPA mice; [6]): had no effect; StARD4 expression (HFD-fed MUP-uPA mice; [6]): reduced; mTORC1/p70S6K activation (HFD-fed MUP-uPA mice; [6]): had no effect; expression of inflammatory cytokines and markers as well as fibrosis-related genes (HFD-fed MUP-uPA mice; qRT-PCR, HFD-fed MUP-uPA mice, 10 μg/g i.p. on alternate days for 6 weeks): reduced |
| z-VDVAD-fmk | – | – | – | reduced | elevating | significantly prevented | dramatically reduced | decreased | decreased | decreased | inflammatory infiltration in livers (HFD-fed MUP-uPA mice; [2]): decreased |
